# From patent US9884842B2, “Combretastatin analogs” (The Board of Trustees of the University of Arkansas, priority 2013, dated 2018)
# Tested on: NCI-H522
# Experiment: NCI growth inhibition and cytotoxicity screen, Lung Cancer panel
# Format: cell-based
# Conditions: Homo sapiens; Table 2; cell line NCI-H522 (Lung Cancer)
row,Compound,GI50 [nM]
1,"COc1cc(/C(C#N)=C/c2cnc3ccccc3c2)cc(OC)c1OC [PNR-5-10, (Z)-3-(quinolin-3-yl)-2-(3,4,5-trimethoxyphenyl)acrylonitrile]",299

# Same assay, conditions: Homo sapiens; Table 2; cell line NCI-H522 (Lung Cancer); read-out: LC50 (the source's name)
row,Compound,CC50 [nM]
1,"COc1cc(/C(C#N)=C/c2cnc3ccccc3c2)cc(OC)c1OC [PNR-5-10, (Z)-3-(quinolin-3-yl)-2-(3,4,5-trimethoxyphenyl)acrylonitrile]",> 100000

# Tested on: SF-295
# Experiment: NCI growth inhibition and cytotoxicity screen, CNS Cancer panel
# Format: cell-based
# Conditions: Homo sapiens; Table 2; cell line SF-295 (CNS Cancer)
row,Compound,GI50 [nM]
1,"COc1cc(/C(C#N)=C/c2cnc3ccccc3c2)cc(OC)c1OC [PNR-5-10, (Z)-3-(quinolin-3-yl)-2-(3,4,5-trimethoxyphenyl)acrylonitrile]",556

# Same assay, conditions: Homo sapiens; Table 2; cell line SF-295 (CNS Cancer); read-out: LC50 (the source's name)
row,Compound,CC50 [nM]
1,"COc1cc(/C(C#N)=C/c2cnc3ccccc3c2)cc(OC)c1OC [PNR-5-10, (Z)-3-(quinolin-3-yl)-2-(3,4,5-trimethoxyphenyl)acrylonitrile]",> 100000

# Tested on: full panel of 60 different cancer cell lines
# Experiment: NCI five dose screen, full panel summary
# Format: cell-based, human
# Conditions: Homo sapiens; range over the potently inhibited cell lines; read-out: GI50 ranging (potently inhibited cancer cell lines)
row,Compound,GI50 [nM]
1,"COc1cc(/C(C#N)=C/c2cnc3ccccc3c2)cc(OC)c1OC [PNR-5-10, (Z)-3-(quinolin-3-yl)-2-(3,4,5-trimethoxyphenyl)acrylonitrile]",227 to 911

# Same assay, conditions: Homo sapiens; read-out: average GI50 value on all the cancer cell lines
row,Compound,GI50 [nM]
1,"COc1cc(/C(C#N)=C/c2cnc3ccccc3c2)cc(OC)c1OC [PNR-5-10, (Z)-3-(quinolin-3-yl)-2-(3,4,5-trimethoxyphenyl)acrylonitrile]",2490

# Same assay, conditions: share of the cancer cell lines potently inhibited
row,Compound,potent growth inhibition on % of the cancer cell lines [%]
1,"COc1cc(/C(C#N)=C/c2cnc3ccccc3c2)cc(OC)c1OC [PNR-5-10, (Z)-3-(quinolin-3-yl)-2-(3,4,5-trimethoxyphenyl)acrylonitrile]",47

# Tested on: MOLT-4
# Experiment: NCI growth inhibition and cytotoxicity screen, Leukemia panel
# Conditions: Homo sapiens, MOLT-4
row,Compound,GI50 [nM]
1,"COc1cc(/C(C#N)=C/c2cnc3ccccc3c2)cc(OC)c1OC [PNR-5-10, (Z)-3-(quinolin-3-yl)-2-(3,4,5-trimethoxyphenyl)acrylonitrile]",3200

# Same assay, conditions: Homo sapiens, MOLT-4, read-out: LC50
row,Compound,CC50 [nM]
1,"COc1cc(/C(C#N)=C/c2cnc3ccccc3c2)cc(OC)c1OC [PNR-5-10, (Z)-3-(quinolin-3-yl)-2-(3,4,5-trimethoxyphenyl)acrylonitrile]",> 100000

# Tested on: RPMI-8226
# Experiment: as above
# Conditions: Homo sapiens, RPMI-8226
row,Compound,GI50 [nM]
1,"COc1cc(/C(C#N)=C/c2cnc3ccccc3c2)cc(OC)c1OC [PNR-5-10, (Z)-3-(quinolin-3-yl)-2-(3,4,5-trimethoxyphenyl)acrylonitrile]",2060

# Same assay, conditions: Homo sapiens, RPMI-8226, read-out: LC50
row,Compound,CC50 [nM]
1,"COc1cc(/C(C#N)=C/c2cnc3ccccc3c2)cc(OC)c1OC [PNR-5-10, (Z)-3-(quinolin-3-yl)-2-(3,4,5-trimethoxyphenyl)acrylonitrile]",> 100000

# Tested on: SR
# Experiment: as above
# Conditions: Homo sapiens
row,Compound,GI50 [nM]
1,"COc1cc(/C(C#N)=C/c2cnc3ccccc3c2)cc(OC)c1OC [PNR-5-10, (Z)-3-(quinolin-3-yl)-2-(3,4,5-trimethoxyphenyl)acrylonitrile]",569

# Same assay, conditions: Homo sapiens, read-out: LC50
row,Compound,CC50 [nM]
1,"COc1cc(/C(C#N)=C/c2cnc3ccccc3c2)cc(OC)c1OC [PNR-5-10, (Z)-3-(quinolin-3-yl)-2-(3,4,5-trimethoxyphenyl)acrylonitrile]",> 100000

# Tested on: LOX-IMVI
# Experiment: NCI growth inhibition and cytotoxicity screen, Melanoma panel
# Conditions: Homo sapiens
row,Compound,GI50 [nM]
1,"COc1cc(/C(C#N)=C/c2cnc3ccccc3c2)cc(OC)c1OC [PNR-5-10, (Z)-3-(quinolin-3-yl)-2-(3,4,5-trimethoxyphenyl)acrylonitrile]",645

# Same assay, conditions: Homo sapiens, read-out: LC50
row,Compound,CC50 [nM]
1,"COc1cc(/C(C#N)=C/c2cnc3ccccc3c2)cc(OC)c1OC [PNR-5-10, (Z)-3-(quinolin-3-yl)-2-(3,4,5-trimethoxyphenyl)acrylonitrile]",> 100000

# Tested on: M14
# Experiment: as above
# Conditions: Homo sapiens, M14
row,Compound,GI50 [nM]
1,"COc1cc(/C(C#N)=C/c2cnc3ccccc3c2)cc(OC)c1OC [PNR-5-10, (Z)-3-(quinolin-3-yl)-2-(3,4,5-trimethoxyphenyl)acrylonitrile]",540

# Same assay, conditions: Homo sapiens, M14, read-out: LC50
row,Compound,CC50 [nM]
1,"COc1cc(/C(C#N)=C/c2cnc3ccccc3c2)cc(OC)c1OC [PNR-5-10, (Z)-3-(quinolin-3-yl)-2-(3,4,5-trimethoxyphenyl)acrylonitrile]",> 100000

# Tested on: UACC-257
# Experiment: as above
# Conditions: Homo sapiens, UACC-257, read-out: LC50
row,Compound,CC50 [nM]
1,"COc1cc(/C(C#N)=C/c2cnc3ccccc3c2)cc(OC)c1OC [PNR-5-10, (Z)-3-(quinolin-3-yl)-2-(3,4,5-trimethoxyphenyl)acrylonitrile]",> 100000

# Tested on: UACC-62
# Experiment: as above
# Conditions: Homo sapiens, UACC-62
row,Compound,GI50 [nM]
1,"COc1cc(/C(C#N)=C/c2cnc3ccccc3c2)cc(OC)c1OC [PNR-5-10, (Z)-3-(quinolin-3-yl)-2-(3,4,5-trimethoxyphenyl)acrylonitrile]",478

# Same assay, conditions: Homo sapiens, UACC-62, read-out: LC50
row,Compound,CC50 [nM]
1,"COc1cc(/C(C#N)=C/c2cnc3ccccc3c2)cc(OC)c1OC [PNR-5-10, (Z)-3-(quinolin-3-yl)-2-(3,4,5-trimethoxyphenyl)acrylonitrile]",> 100000

# Tested on: SNB-19
# Experiment: NCI growth inhibition and cytotoxicity screen, CNS Cancer panel
# Conditions: Homo sapiens, SNB-19
row,Compound,GI50 [nM]
1,"COc1cc(/C(C#N)=C/c2cnc3ccccc3c2)cc(OC)c1OC [PNR-5-10, (Z)-3-(quinolin-3-yl)-2-(3,4,5-trimethoxyphenyl)acrylonitrile]",5230

# Same assay, conditions: Homo sapiens, SNB-19, read-out: LC50
row,Compound,CC50 [nM]
1,"COc1cc(/C(C#N)=C/c2cnc3ccccc3c2)cc(OC)c1OC [PNR-5-10, (Z)-3-(quinolin-3-yl)-2-(3,4,5-trimethoxyphenyl)acrylonitrile]",> 100000

# Tested on: SNB-75
# Experiment: as above
# Conditions: Homo sapiens, SNB-75
row,Compound,GI50 [nM]
1,"COc1cc(/C(C#N)=C/c2cnc3ccccc3c2)cc(OC)c1OC [PNR-5-10, (Z)-3-(quinolin-3-yl)-2-(3,4,5-trimethoxyphenyl)acrylonitrile]",1490

# Same assay, conditions: Homo sapiens, SNB-75, read-out: LC50
row,Compound,CC50 [nM]
1,"COc1cc(/C(C#N)=C/c2cnc3ccccc3c2)cc(OC)c1OC [PNR-5-10, (Z)-3-(quinolin-3-yl)-2-(3,4,5-trimethoxyphenyl)acrylonitrile]",> 100000

# Tested on: U251
# Experiment: as above
# Conditions: Homo sapiens, U-251
row,Compound,GI50 [nM]
1,"COc1cc(/C(C#N)=C/c2cnc3ccccc3c2)cc(OC)c1OC [PNR-5-10, (Z)-3-(quinolin-3-yl)-2-(3,4,5-trimethoxyphenyl)acrylonitrile]",1700

# Same assay, conditions: Homo sapiens, U-251, read-out: LC50
row,Compound,CC50 [nM]
1,"COc1cc(/C(C#N)=C/c2cnc3ccccc3c2)cc(OC)c1OC [PNR-5-10, (Z)-3-(quinolin-3-yl)-2-(3,4,5-trimethoxyphenyl)acrylonitrile]",> 100000

# Tested on: NCI-H226
# Experiment: NCI growth inhibition and cytotoxicity screen, Lung Cancer panel
# Conditions: Homo sapiens, NCI-H226
row,Compound,GI50 [nM]
1,"COc1cc(/C(C#N)=C/c2cnc3ccccc3c2)cc(OC)c1OC [PNR-5-10, (Z)-3-(quinolin-3-yl)-2-(3,4,5-trimethoxyphenyl)acrylonitrile]",> 100000
